In patent US4902700A, “Thiazole derivative and leukotriene antagonist containing the same as the effective ingredients” (Mitsubishi Kasei Corporation, priority 1985, dated 1990):
Where a name gives a salt, the structure may show the parent alone.

Tested on: SRS
Assay: SRS antagonistic action in vitro (isolated guinea pig ileum shrinkage)
Details: conc. attenuating control shrinkage to 50% (IC50), Tables 2-1 to 2-4, head prints no unit, read-out: Anti-SRS action [minimum effective conc.]
Protocol: The ileum end portion of a male Hartley-strain guinea pig weighing 200-450 g was extirpated and after washing its lumen, the ileum was mounted within 5 ml of a tissue bath containing a Tylord solution comprising the following components. […] For removing shrinkage with hystamine and acetylcholine, 10^-7 g/ml of mepylamin and 5×10^-8 g/ml of atropin were added to the above buffer. […] The ileum was loaded passively with 0.5 g of tension and the ileum shrinkage reaction to SRS extracted from guinea pig lung was obtained. The persistent shrinkage height by one unit of SRS (corresponding to 5 ng of hystamine) was used as control.

First: O=C(O)[C@H]1CCCC[C@H]1C(=O)Nc1cccc(/C=C/c2nc3ccccc3s2)c1 (relative stereo) [compound 3]
Second: O=C(O)C(=O)Nc1cccc(/C=C/c2nc3ccccc3s2)c1 [compound 168]
The IC50 of the first is 2-fold lower: 5e-08 M for the first, 1e-07 M for the second.

O=C(O)c1ccccc1C(=O)Nc1cccc(/C=C/c2nc3ccccc3s2)c1 [compound 2] and Cc1ccc2sc(/C=C/c3cccc(NC(=O)c4ccccc4C(=O)O)c3)nc2c1 [compound 231] are the same in IC50: 5e-09 M for the first, 5e-09 M for the second.

First: O=C(O)/C=C\C(=O)Nc1cccc(/C=C/c2nc(-c3ccccc3)cs2)c1 [compound 34]
Second: O=C(O)/C=C/C(=O)Nc1cccc(/C=C/c2nc3ccccc3s2)c1 [compound 167]
The IC50 of the first is 10-fold lower: 2e-08 M for the first, 2e-07 M for the second.

Compared with Cc1csc(/C=C/c2cccc(NC(=O)/C=C\C(=O)O)c2)n1 [compound 54], CCCc1nc(/C=C/c2cccc(NC(=O)/C=C\C(=O)O)c2)sc1CC [compound 332] is 5-fold lower in IC50: 5e-07 M for the first, 1e-07 M for the second. The second is the more potent here.

Going from COC(=O)CCC(=O)Nc1cccc(/C=C/c2nc3ccccc3s2)c1 [compound 192] to CCCCC(CC(=O)Nc1cccc(/C=C/c2nc3ccccc3s2)c1)C(=O)O (stereo not shown) [compound 227], the IC50 falls from 5e-07 M to 5e-08 M (10-fold).

Going from Cc1cc(C(=O)O)c(C(=O)Nc2cccc(/C=C/c3nc(-c4ccccc4)cs3)c2)cc1C [compound 253] to CCc1nc(/C=C/c2cccc(NC(=O)c3cc(C)c(C)cc3C(=O)O)c2)sc1C [compound 328], the IC50 falls from 5e-08 M to 5e-09 M (10-fold). The second is the more potent here.

Compared with CCCCCCc1csc(/C=C/c2cccc(NC(=O)c3ccccc3C(=O)O)c2)n1 [compound 287], CCCCCCCc1csc(/C=C/c2cccc(NC(=O)c3ccccc3C(=O)O)c2)n1 [compound 291] is 200-fold lower in IC50: 2e-05 M for the first, 1e-07 M for the second.

Going from CC(C)(C)c1csc(/C=C/c2cccc(NC(=O)CCCC(=O)O)c2)n1 [compound 298] to CC(C)c1csc(/C=C/c2cccc(NC(=O)CC(C(=O)O)c3ccccc3)c2)n1 (stereo not shown) [compound 307], the IC50 falls from 5e-05 M to 2e-09 M (25000-fold).

Same assay, conditions: conc. attenuating control shrinkage to 50% (IC50), Tables 2-6 to 2-11 and Table 3, read-out: Anti-SRS action [minimum effective conc. (M)]

Compared with O=C(O)[C@H]1CCCC[C@H]1C(=O)Nc1cccc(/C=C/c2nc3ccccc3s2)c1 (relative stereo) [compound 414, 2-[trans-3-(cis-2-carboxycyclohexanoyl)aminostyryl]benzothiazole N-methyl-D-glucamine salt], O=C(O)/C=C\C(=O)Nc1cccc(/C=C/c2nc3ccccc3s2)c1 [compound 213, 2-[trans-3-(cis-3-carboxypropenamide)styryl]benzothiazole sodium salt] is 20-fold lower in IC50: 1e-06 M for the first, 5e-08 M for the second.

Compared with O=C(O)/C=C\C(=O)Nc1cccc(NCc2nc3ccccc3s2)c1 [compound 150], O=C(O)/C=C\C(=O)Nc1cccc(OCc2nc3ccccc3s2)c1 [compound 368] is 2-fold lower in IC50: 2e-07 M for the first, 1e-07 M for the second.

CC(C)CCOC(=O)/C=C\C(=O)Nc1cccc(/C=C/c2nc3ccccc3s2)c1 [compound 189, 2-[trans-3-(cis-3-isoamyloxycarbonylpropenamide)styryl]benzothiazole] and O=C(CCCO)Nc1cccc(/C=C/c2nc3ccccc3s2)c1 [compound 422, 2-[trans-3-(4-hydroxybutanoylamino)styryl]benzothiazole] are the same in IC50: 1e-06 M for the first, 1e-06 M for the second.

CCOC(=O)CCCNc1cccc(/C=C/c2nc3ccccc3s2)c1 [compound 199, 2-[trans-3-(3-ethoxycarbonylpropyl)aminostyryl]benzothiazole] and O=C(O)CCCCNc1cccc(/C=C/c2nc3ccccc3s2)c1 [compound 398] are the same in IC50: 2e-07 M for the first, 2e-07 M for the second.

First: O=C(CC1(C(=O)O)CCCCC1)Nc1cccc(CCc2nc3ccccc3s2)c1 [compound 358]
Second: O=C(O)CCCNc1cccc(CCc2nc3ccccc3s2)c1 [compound 376]
The IC50 of the first is 50-fold lower: 1e-08 M for the first, 5e-07 M for the second.

Going from O=C(O)/C=C\C(=O)Nc1cccc(COCc2nc3ccccc3s2)c1 [compound 369] to O=C(O)CCNc1cccc(/C=C/c2nc3ccccc3s2)c1 [compound 426, 2-[trans-3-(2-carboxyethylamino)styryl]benzothiazole sodium salt], the IC50 falls from 1e-05 M to 2e-07 M (50-fold). The second is the more potent here.

Compared with Cc1nc(C=Cc2cccc(NCCCC(=O)O)c2)sc1C [compound 377], CCc1csc(C=Cc2cccc(NCCCC(=O)O)c2)n1 [compound 387] is 20-fold lower in IC50: 2e-07 M for the first, 1e-08 M for the second. The second is the more potent here.

First: CCCCc1csc(C=Cc2cccc(NCCCC(=O)O)c2)n1 [compound 389]
Second: O=C(O)CCCCCc1cccc(/C=C/c2nc3ccccc3s2)c1 [compound 411]
The IC50 of the first is 100-fold lower: 1e-07 M for the first, 1e-05 M for the second.

First: OCCCCOc1cccc(/C=C/c2nc3ccccc3s2)c1 [compound 423, 2-[trans-3-(4-hydroxybutoxy)styryl]benzothiazole]
Second: C(=C\c1nc2ccccc2s1)/c1cccc(NCCCc2nnn[nH]2)c1 [compound 424, 2-[trans-3-(3-(5-tetrazolyl)propylamino)styryl]benzothiazole]
The IC50 of the first is 20-fold higher: 1e-05 M for the first, 5e-07 M for the second.

Tested on: LTD4
Assay: LTD4 antagonistic action in vivo (airway resistance increase, Konzett-Roessler)
Parameters: species or system guinea pig
Details: Cavia porcellus, read-out: Airway resistance increase inhibition

Compound O=C([O-])CCCNc1cccc(/C=C/c2nc3ccccc3s2)c1.[Na+] [sodium salt] has an inhibition in vivo at 3 mg/kg of 55%.

Same assay, conditions: Cavia porcellus; intraduodenal, 3 mg/kg; LTD4 0.1-1.0 μg/kg i.v.; read-out: Airway resistance increase inhibition

Compared with O=C(CC1(C(=O)O)CCCCC1)Nc1cccc(/C=C/c2nc3ccccc3s2)c1 [compound 223], CCCCC(CC(=O)Nc1cccc(/C=C/c2nc3ccccc3s2)c1)C(=O)O (stereo not shown) [compound 227] is lower in inhibition in vivo at 3 mg/kg: 87% for the first, 71% for the second.

Same assay, conditions: Cavia porcellus; intraduodenal, 10 mg/kg; LTD4 0.1-1.0 μg/kg i.v.

Compared with CCCc1csc(/C=C/c2cccc(NC(=O)c3ccccc3C(=O)O)c2)n1 [compound 272], CC(C)(C)c1csc(/C=C/c2cccc(NC(=O)CCC(=O)O)c2)n1 [compound 297] is higher in inhibition in vivo at 10 mg/kg: 37% for the first, 62% for the second.

Same assay, conditions: Cavia porcellus; intraduodenal, 30 mg/kg; LTD4 0.1-1.0 μg/kg i.v.

Going from O=C(O)/C=C\C(=O)Nc1cccc(/C=C/c2nc3ccccc3s2)c1 [compound 213, 2-[trans-3-(cis-3-carboxypropenamide)styryl]benzothiazole sodium salt] to O=C(O)/C=C\C(=O)Nc1cccc(CCc2nc3ccccc3s2)c1 [compound 353], the inhibition in vivo at 30 mg/kg rises from 51% to 79%.

Tested on: not listed separately
Assay: Acute toxicity test, oral
Details: mouse, in vivo, male ddy mice, 1% tragacanth suspension, 7 days
Protocol: With 4 to 5 ddy-strain male mice of 6 weeks old as one group, the compound of the present invention was orally administered as a suspension in 1% tragacanth solution, and observation was conducted for 7 days and the number of dead mice was examined to obtain the results shown in Table 5.

First: O=C([O-])CCCNc1cccc(/C=C/c2nc3ccccc3s2)c1.[Na+]
Second: O=C(O)/C=C\C(=O)Nc1cccc(/C=C/c2nc3ccccc3s2)c1 [compound 213, 2-[trans-3-(cis-3-carboxypropenamide)styryl]benzothiazole sodium salt]
The LD50 at 168 h of the first is lower: 2000 to 3000 mg/kg for the first, over 3000 mg/kg for the second.

Compared with O=C(O)[C@H]1CCCC[C@H]1C(=O)Nc1cccc(/C=C/c2nc3cc(Cl)ccc3s2)c1 (relative stereo) [compound 26], Cc1ccc2sc(/C=C/c3cccc(NC(=O)[C@@H]4CCCC[C@@H]4C(=O)O)c3)nc2c1 (relative stereo) [compound 232] is lower in LD50 at 168 h: over 3000 mg/kg for the first, 3000 mg/kg for the second.

First: O=C(O)[C@H]1CCCC[C@H]1C(=O)Nc1cccc(/C=C/c2nc3ccccc3s2)c1 (relative stereo) [compound 216]
Second: O=C(O)[C@@H]1CCCC[C@H]1C(=O)Nc1cccc(/C=C/c2nc3ccccc3s2)c1 (relative stereo) [compound 418]
The LD50 at 168 h of the first is higher: over 3000 mg/kg for the first, under 3000 mg/kg for the second.

First: O=C(O)[C@H]1CCCC[C@H]1C(=O)Nc1cccc(/C=C/c2nc(-c3ccccc3)cs2)c1 (relative stereo) [compound 248]
Second: O=C(O)[C@H]1CC=CC[C@H]1C(=O)Nc1cccc(/C=C/c2nc(-c3ccccc3)cs2)c1 (relative stereo) [compound 249]
The LD50 at 168 h of the first is higher: over 3000 mg/kg for the first, 1000 to 2000 mg/kg for the second.

Cc1nc(/C=C/c2cccc(NC(=O)[C@H]3CCCC[C@H]3C(=O)O)c2)sc1C (relative stereo) [compound 315] and CCc1nc(/C=C/c2cccc(NC(=O)[C@H]3CCCC[C@H]3C(=O)O)c2)sc1C (relative stereo) [compound 324] cannot be ordered by LD50 at 168 h: 1000 to 2000 mg/kg for the first, 1380 mg/kg for the second.

Compared with Cc1nc(/C=C/c2cccc(NC(=O)[C@H]3CC=CC[C@H]3C(=O)O)c2)sc1C (relative stereo) [compound 317], Cc1nc(/C=C/c2cccc(NC(=O)/C=C\C(=O)O)c2)sc1C [compound 313] is 1.5-fold higher in LD50 at 168 h: 1030 mg/kg for the first, 1560 mg/kg for the second.

Compared with O=C(Nc1cccc(CCc2nc3ccccc3s2)c1)[C@H]1CCCC[C@H]1C(=O)O (relative stereo) [compound 355], O=C(O)/C=C\C(=O)Nc1cccc(CCc2nc3ccccc3s2)c1 [compound 353] is 1.7-fold higher in LD50 at 168 h: 1930 mg/kg for the first, 3310 mg/kg for the second.

O=C(O)c1ccccc1C(=O)Nc1cccc(/C=C/c2nc3ccccc3s2)c1 [compound 2] and O=C(O)c1ccccc1C(=O)Nc1cccc(/C=C/c2nc(-c3ccccc3)cs2)c1 [compound 247] cannot be ordered by LD50 at 168 h: over 3000 mg/kg for the first, over 3000 mg/kg for the second.

First: CCCCCc1csc(/C=C/c2cccc(NC(=O)c3ccccc3C(=O)O)c2)n1 [compound 281]
Second: CC(C)c1csc(/C=C/c2cccc(NC(=O)c3ccccc3C(=O)O)c2)n1 [compound 300]
The LD50 at 168 h of the first is higher: over 3000 mg/kg for the first, 1000 to 2000 mg/kg for the second.

CC(C)c1csc(/C=C/c2cccc(NC(=O)CCCC(=O)O)c2)n1 [compound 303] and CCc1nc(/C=C/c2cccc(NC(=O)CCCC(=O)O)c2)sc1C [compound 326] cannot be ordered by LD50 at 168 h: 2000 mg/kg for the first, under 3000 mg/kg for the second.

Cc1nc(/C=C/c2cccc(NC(=O)c3ccccc3C(=O)O)c2)sc1C [compound 314] and CCc1nc(/C=C/c2cccc(NC(=O)CCC(=O)O)c2)sc1C [compound 325] cannot be ordered by LD50 at 168 h: 2000 to 3000 mg/kg for the first, 2000 mg/kg for the second.

CCc1nc(C=Cc2cccc(NCCCC(=O)O)c2)sc1C [compound 382] showed an LD50 at 168 h of 1930 mg/kg.
